Laboratory results published in US20250162973A1, “METHODS OF SYNTHESIS AND USES OF AGRIMOL COMPOUNDS” (Versitech Limited, priority 2022, published 2025).

Assays:
NCI-H460 cells = test: Wound healing assay (cell migration); format: cell-based, human
Description: For wound healing assay in the present study, the cells were grown to approximately 80% confluence in 12-well plates in the complete growth medium and then a straight line was scraped at the central part of the each well by a 200 μL pipette tip. […] […] Each condition was performed in triplicate.

NCI-H460 xenograft = test: Human tumor xenograft model; format: in vivo, BALB/c nude mice; conditions: AGB 3 mg/kg, tail intravenous injection
Description: (§1) In vivo anticancer efficacy of AGB was evaluated using the human tumor xenograft model, in which human cancer cells were inoculated into immune-deficiency mice. Briefly, twelve six-week-old (16-18 g) BALB/c nude mice were randomly divided into two groups and both received subcutaneous injection of NCI-H460 cells (2 million cells in 0.1 mL PBS) at its right flank of mice and tumor became palpable after three days of injection. Mice were received intravenous (i.v.) injections of AGB or vehicle control (10% DMSO and 0.05% Tween 80 in normal saline) every two days in two weeks. The length and width of tumor were measured by Vernier caliper and the body weight was monitored every two or three days. At the end of experiment, mice were sacrificed and decapitated. The liver, kidney, and tumor were collected and fixed in 4% formaldehyde for further haematoxylin and eosin (H&E) staining. All animal experiments in this project received human care and study protocols complied with the guidelines of the Laboratory Animal Services Centre of the University of Hong Kong. Tumor sizes and body weight were recorded before the drug injection every time and tumor volume (V) was calculated by the formula V=LW^2/2, where L is tumor length and W is tumor width. […]
(§2) The in vivo antitumor potential of AGB using the xenograft mouse model was assessed. […]

[1] = system: stem-like NCI-H460 xenograft; test: Cancer stem like xenograft model; format: in vivo, NOD/SCID mice; conditions: AGB 3 mg/kg, tail intravenous injection
Description: as §1, §2

[2] = Safety in xenograft mice (body weight, H&E staining); format: in vivo
Description: In vivo anticancer efficacy of AGB was evaluated using the human tumor xenograft model, in which human cancer cells were inoculated into immune-deficiency mice. Briefly, twelve six-week-old (16-18 g) BALB/c nude mice were randomly divided into two groups and both received subcutaneous injection of NCI-H460 cells (2 million cells in 0.1 mL PBS) at its right flank of mice and tumor became palpable after three days of injection. Mice were received intravenous (i.v.) injections of AGB or vehicle control (10% DMSO and 0.05% Tween 80 in normal saline) every two days in two weeks. The length and width of tumor were measured by Vernier caliper and the body weight was monitored every two or three days. At the end of experiment, mice were sacrificed and decapitated. The liver, kidney, and tumor were collected and fixed in 4% formaldehyde for further haematoxylin and eosin (H&E) staining. All animal experiments in this project received human care and study protocols complied with the guidelines of the Laboratory Animal Services Centre of the University of Hong Kong. Tumor sizes and body weight were recorded before the drug injection every time and tumor volume (V) was calculated by the formula V=LW^2/2, where L is tumor length and W is tumor width. The relative tumor volume that normalized to day 0 was used to monitor the tumor growth. Data in each group was shown as mean±standard deviation.
The in vivo antitumor potential of AGB using the xenograft mouse model was assessed. Two different cancer cells (NCI-H460 and A549) were inoculated subcutaneously into the nude mice. Non-obese diabetic severe combined immunodeficient (NOD/SCID) mice were used for stem-like NCI-H460 cells. The mice were then treated by tail intravenous injection with vehicle or AGB (3 mg/kg). […] To further evaluate the safety of AGB, hematoxylin-eosin (H&E) staining of the kidney, liver, and tumor samples were performed (FIG. 1K). The necrotic area (circled by dashed line) in the tumor tissue from mice treated with AGB was much larger than that in vehicle group.

[3] = Hematological examination in MTD test; format: in vivo; conditions: 12.8 mg/kg, day 14
Description: The MTD test in this study was done in collaboration with Tianjin Institute of Pharmaceutical Research (TIPR). […] A total of 80 mice were randomly assigned into four groups (10 male and 10 female mice in each group) in this study. Four groups included 16.0 mg/kg of AGB group, 12.8 mg/kg of AGB group, vehicle control group (10% DMSO+0.8% Tween-80 in normal saline), and the blank control group (normal saline).
Then, the body weights of surviving animals were measured on the 1st, 3rd, 7th and 14th days, respectively. At the end of experiment, the hematology, blood biochemistry, anatomical examination, and histopathology examination were performed in both vehicle control group and the MTD group (12.8 mg/kg). The data were presented as the mean±standard deviation.

[4] = system: ER stress in NCI-H460 cells; test: ER stress (ER tracker staining, Western Blot of markers); format: cell-based, human
From the text: The disruption of Golgi structure leads to impaired glycosylation processes, resulting in misfolded proteins which would accumulate to induce ER stress. The relationship between AGB and ER stress in cancer cells was examined. The morphology of ER was disrupted and the content was lessened using ER tracker staining (images not shown). In order to verify that NCI-H460 cells developed ER stress response when treated with AGB, the expression of two ER stress markers, Glucose-regulated protein (GRP) 78 (GRP78) and C/-EBP homologous protein (CHOP), was examined. GAPDH was used as a loading control. […] Generally, there are three sensors to initiate ER stress responses, including IRE1, PERK and ATF6. Upon the accumulation of unfolded proteins, BiP preferentially binds to the unfolded proteins, which results in the release of PERK, IRE1, and ATF6. Once released from BiP, PERK becomes activated and dimerized. Activated PERK phosphorylates eIF2α to suppress the overall […] of mRNAs.

[5] = system: U2OS cells transfected with mitochondrial-RFP reporter gene; test: Time-lapse microscopy of mitochondrial morphology; format: cell-based, human; conditions: 30 hour, 4 μM AGB treatment
Description: Another cluster highlighted in the ProTargetMiner analysis was related to mitochondrial translation and respiration function. Time-lapse microscopy was used to monitor the changes of mitochondrial morphology during a 30 hour, 4 μM AGB treatment using U2OS cells transfected with mitochondrial-RFP reporter gene (data not shown). AGB indeed triggers dynamic changes of mitochondria. As shown in the movie recorded using time-lapse microscopy (data not shown), about 5 hours after the start of the imaging, mitochondria changed to a thread-like, very elongated morphology. Then the threads slowly broke up. At about 10 h, the mitochondria became small dots and these dots got brighter. At the end of the movie (about 30 h treatment), some cells underwent mitochondrial outer membrane permeabilization (the abrupt loss of fluorescence in mitochondria) and died.

Hsp60 client Mito-RFP = test: Mito-RFP / EGFP fluorescence in transfected cells; format: cell-based

Which “width of the scratch wound” value (NCI-H460 cells; 1 μM of AGB) does the source give for `CCCC(=O)c1c(O)c(Cc2c(O)c(Cc3c(O)c(C)c(OC)c(C(=O)CCC)c3O)c(O)c(C(=O)[C@@H](C)CC)c2O)c(O)c(C)c1OC` [AGB, Agrimol B] here?
The value was “significantly decreased”.

What about the wound closure (NCI-H460 cells; 4 μM or 10 μM of AGB, 16 h and 32 h) of the same molecule?
The wound closure was “wound closure was inhibited”.

And the “concentration giving significant reduction of cell migration” value (NCI-H460 cells; wound healing assay)?
The value was “around 4 μM”.

What about the “tumor growth inhibition rate” value (NCI-H460 xenograft) of the same molecule?
The value was 57%.

And the “tumor growth inhibition rate” value [1]?
Its value is 64%.

And the “observable toxicity (body weight of mice)” value ([2]; 3 mg/kg of AGB)?
The value was “did not show any observable toxicity”.

What about the “liver and kidney histology (H&E)” value ([2]; after treatment with AGB) of the same molecule?
The value was “did not show any obvious change”.

And the “necrotic area in the tumor tissue vs vehicle group (H&E)” value ([2]; mice treated with AGB)?
The value was “much larger”.

And the “E (eosinophils)” value [3]?
Its value is 0.29 ± 0.11 ×10^9/L.

And the “E(%)” value [3]?
Its value is 5.48 ± 1.64%.

What about the HCT [3] of the same molecule?
The HCT was 47.54 ± 2.21%.

And the HGB [3]?
The HGB was 138.20 ± 9.38 g/L.

What about the “L (lymphocytes)” value [3] of the same molecule?
Its value is 4.22 ± 1.32 ×10^9/L.

And the “L(%)” value [3]?
The value was 77.53 ± 2.05%.

And the “M (monocytes)” value [3]?
Its value is 0.09 ± 0.03 ×10^9/L.

What about the “M(%)” value [3] of the same molecule?
The value was 1.64 ± 0.46%.

And the MCH [3]?
Its MCH is 15.20 ± 0.97 pg.

And the MCHC [3]?
Its MCHC is 291.00 ± 20.17 g/L.

And the MCV [3]?
Its MCV is 52.25 ± 2.16 fL.

What about the “N (neutrophils)” value [3] of the same molecule?
The value was 0.78 ± 0.28 ×10^9/L.

And the “N(%)” value [3]?
Its value is 14.24 ± 2.15%.

And the PLT [3]?
The PLT was 1733.80 ± 371.53 ×10^9/L.

What about the RBC [3] of the same molecule?
Its RBC is 9.11 ± 0.45 ×10^12/L.

What about the Ret [3] of the same molecule?
Its Ret is 0.81 ± 0.09 ×10^12/L.

What about the “Ret(%)” value [3] of the same molecule?
The value was 8.83 ± 0.74%.

And the WBC [3]?
Its WBC is 5.44 ± 1.66 ×10^9/L.

And the “phosphorylation status of eIF2α” value ([4]; AGB-treated NCI-H460)?
Its value is “eIF2α was phosphorylated”.

What about the “morphology of ER” value ([4]; ER tracker staining) of the same molecule?
Its value is “disrupted”.

What about the “expression of ER stress markers GRP78 and CHOP” value ([4]; Western Blot, time-dependent) of the same molecule?
The value was “significantly increased”.

What about the mitochondrial morphology [5] of the same molecule?
The mitochondrial morphology was “cells underwent a mitochondrial fission”.

What about the EGFP fluorescence (Hsp60 client Mito-RFP; cells transfected with EGFP-expressing construct) of the same molecule?
The EGFP fluorescence was “did not show changes in fluorescence”.

What about the “mitochondrial fluorescence (Mito-RFP) vs vehicle” value (Hsp60 client Mito-RFP; cells transfected with Mito-RFP) of the same molecule?
The value was “significant reduction of mitochondrial fluorescence”.
